Patent US10093623B2, “Cyclic amides as MetAP-2 inhibitors” (MERCK PATENT GmbH, priority 2012, dated 2018)

Target: MetAP-2 (Homo sapiens, UniProt P50579)
Assay: MetAP-2 activity measurement (coupled enzymatic reactions, Met-Arg-Ser substrate, dianisidine detection at 450 nm)
Type: biochemical
Conditions: Inhibition of MetAP-2; read-out: IC50 enzyme
Description: MetAP-2 Activity Measurement
The MetAP-2 activity is determined by coupling enzymatic reactions. The tripeptide Met-Arg-Ser (MAS) is employed as substrate. The methionine liberated is firstly converted into Metox and H2O2 by L-aminooxidase (AAO). In the second step, the peroxidase (POD) with the aid of the H2O2 catalyses the oxidation of the leukodye dianisidine to dianisidineox, the increase of which is detected photometrically at 450 nm.
MetAP-2 activity can be recorded continuously as kinetics. The reaction scheme illustrates that one mol of dianisidineox is formed per mol of methionene. The MetAP-2 enzyme activity can therefore be calculated directly as A absorption per time unit. Qualification of the MetAP-2 activity (mol of Met/time unit) is possible with the aid of the dianisidineox extinction coefficient.
The change in extinction per time unit is depicted graphically and a slope calculation is carried out in the visually linear region of the reaction.

Sequence of MetAP-2 (P50579 whole entry, species assumed): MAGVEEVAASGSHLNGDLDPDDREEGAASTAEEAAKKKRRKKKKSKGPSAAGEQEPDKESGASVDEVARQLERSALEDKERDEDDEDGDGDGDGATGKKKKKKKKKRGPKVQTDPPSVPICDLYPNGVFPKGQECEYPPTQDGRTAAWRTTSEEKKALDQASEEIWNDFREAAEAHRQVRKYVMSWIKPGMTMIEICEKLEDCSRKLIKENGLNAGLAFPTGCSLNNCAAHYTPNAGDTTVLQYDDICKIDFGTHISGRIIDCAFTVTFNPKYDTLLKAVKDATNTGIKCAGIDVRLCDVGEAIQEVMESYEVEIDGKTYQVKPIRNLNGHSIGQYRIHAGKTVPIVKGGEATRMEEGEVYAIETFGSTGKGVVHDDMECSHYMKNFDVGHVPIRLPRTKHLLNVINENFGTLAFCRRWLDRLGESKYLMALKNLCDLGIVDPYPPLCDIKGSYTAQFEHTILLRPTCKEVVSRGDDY

IC50, 1000 to 10000 nM:
O=C(NCc1cc(F)cc(Cl)c1)C1(O)CCCN(c2cc(C(F)(F)F)ccc2F)C1=O (stereo not shown) [B67, N-(3-Chloro-5-fluorobenzyl)-1-(2-fluoro-5-trifluoromethyl-phenyl)-3-hydroxy-2-oxo-piperidine-3-carboxamide]
O=C(NCc1cc(F)cc(Cl)c1)[C@]1(O)CCN(c2cc(C(F)(F)F)ccc2F)C1=O [B42, N-(3-Chloro-5-fluorobenzyl)-(R)-1-(2-Fluoro-5-trifluoromethyl-phenyl)-3-hydroxy-2-oxo-pyrrolidine-3-carboxamide]
CC(=O)OC1(C(=O)NCc2cc(F)cc(Cl)c2)CCN(c2ccc3c(c2)CCC(=O)N3)C1=O (stereo not shown) [B91, 3-(3-Chloro-5-fluorobenzyl-carbamoyl)-2-oxo-1-(2-oxo-1,2,3,4-tetrahydroquinolin-6-yl)-pyrrolidin-3-yl acetate]
COc1cc(Cl)c(C)cc1N1CCC(O)(C(=O)NCc2cc(F)cc(Cl)c2)C1=O (stereo not shown) [B12, N-(3-Chloro-5-fluorobenzyl)-1-(4-chloro-2-methoxy-5-methyl-phenyl)-3-hydroxy-2-oxo-pyrrolidine-3-carboxamide]
CC(=O)NC1CCCC(N2CCC(O)(C(=O)NCc3cc(F)cc(Cl)c3)C2=O)C1 (stereo not shown) [A126, N-(3-Chloro-5-fluorobenzyl)-1-(3-acetylaminocyclohexyl)-3-hydroxy-2-oxopyrrolidine-3-carboxamide]
CCOC(=O)[C@H]1CC[C@H](N2CCC(O)(C(=O)NCc3cc(F)cc(Cl)c3)C2=O)CC1 (stereo partly shown) [A148, Ethyl 4-[3-(3-chloro-5-fluorobenzylcarbamoyl)-3-hydroxy-2-oxopyrrolidin-1-yl]-cyclohexanecarboxylate]
CCS(=O)(=O)NC1CCCC(N2CCC(O)(C(=O)NCc3cc(F)cc(Cl)c3)C2=O)C1 (stereo not shown) [A128, N-(3-Chloro-5-fluorobenzyl)-1-(3-ethanesulfonylamino-cyclohexyl)-3-hydroxy-2-oxo-pyrrolidine-3-carboxamide]
CC(C)(C)OC(=O)N1CC(CN2CCC(O)(C(=O)NCc3cc(F)cc(Cl)c3)C2=O)C1 (stereo not shown) [A213, tert-Butyl 3-[3-(3-chloro-5-fluorobenzylcarbamoyl)-3-hydroxy-2-oxopyrrolidin-1-yl-methyl]-azetidine-1-carboxylate]

IC50, > 10000 nM:
CCN1C[C@@H]2[C@H](C1)[C@H]2N1CCC(O)(C(=O)NCc2cc(F)cc(Cl)c2)C1=O (stereo partly drawn) [A275, N-(3-Chloro-5-fluorobenzyl)-1-((1S,5R,6S)-3-ethyl-3-aza-bicyclo[3.1.0]hex-6-yl)-3-hydroxy-2-oxopyrrolidine-3-carboxamide]
O=C(NCc1cc(F)cc(Cl)c1)C1(O)CCN([C@H]2CCNC2)C1=O (stereo partly drawn) [A233, N-(3-Chloro-5-fluorobenzyl)-(S)-3-hydroxy-2-oxo-[1,3′]bipyrrolidinyl-3-carboxamide]
O=C(NCCO)c1cccc(N2CC[C@@](O)(C(=O)NCc3cc(F)cc(Cl)c3)C2=O)c1 [A91, N-(3-Chloro-5-fluorobenzyl)-(R)-3-hydroxy-1-[3-(2-hydroxy-ethylcarbamoyl)phenyl]-2-oxo-pyrrolidine-3-carboxamide]
CN(C)CCNC(=O)[C@@]1(O)CCN(c2ccccc2)C1=O [A59, N-(2-Dimethylaminoethyl)-(S)-3-hydroxy-2-oxo-1-phenylpyrrolidine-3-carboxamide]
O=C1CCc2cc(N3CC[C@@](O)(C(=O)NCc4cccc(F)c4)C3=O)ccc2N1 [B57, N-(3-Fluorobenzyl)-(R)-3-hydroxy-2-oxo-1-(2-oxo-1,2,3,4-tetrahydroquinolin-6-yl)-pyrrolidine-3-carboxamide]
O=C1CCc2cc(N3CC[C@@](O)(C(=O)NCCc4cc(F)cc(F)c4)C3=O)ccc2N1 [A223, N-[2-(3,5-Difluorophenyl)ethyl]-(R)-3-hydroxy-2-oxo-1-(2-oxo-1,2,3,4-tetrahydroquinolin-6-yl)-pyrrolidine-3-carboxamide]
CC1(C)CN(c2ccccc2)C(=O)[C@@]1(O)C(=O)NCc1cc(F)cc(Cl)c1 [A101, N-(3-Chloro-5-fluorobenzyl)-(S)-3-hydroxy-4,4-dimethyl-2-oxo-1-phenylpyrrolidine-3-carboxamide]
O=C(NCc1cc(F)cc(Cl)c1)[C@]1(O)CCN(c2cnc3[nH]cc(C(F)(F)F)c3c2)C1=O [B140, N-(3-Chloro-5-fluorobenzyl)-(R)-3-hydroxy-2-oxo-1-(3-trifluoromethyl-1H-pyrrolo-[2,3-b]pyridin-5-yl)pyrrolidine-3-carboxamide]
O=C(NCc1cc(F)cc(Cl)c1)C1(O)CCN([C@@H]2CCNC2)C1=O (stereo partly drawn) [A131, N-(3-Chloro-5-fluorobenzyl)-(R)-3-hydroxy-2-oxo-[1,3′]bipyrrolidinyl-3-carboxamide]

IC50, 10 to 1000 nM:
NNC(=O)c1cc2cc(N3CC[C@](O)(C(=O)NCc4cc(F)cc(Cl)c4)C3=O)ccc2[nH]1 [B134, N-(3-Chloro-5-fluorobenzyl)-(S)-1-(2-hydrazinocarbonyl-1H-indol-5-yl)-3-hydroxy-2-oxo-pyrrolidine-3-carboxamide]
CCOC(=O)c1cc2cc(N3CCC(O)(C(=O)NCc4cc(F)cc(Cl)c4)C3=O)ccc2[nH]1 (stereo not shown) [A205, Ethyl 5-[3-(3-chloro-5-fluorobenzylcarbamoyl)-3-hydroxy-2-oxopyrrolidin-1-yl]-1H-indol-2-carboxylate]
NS(=O)(=O)c1ccc(N2CCC(O)(C(=O)NCc3cc(F)cc(Cl)c3)C2=O)cc1 (stereo not shown) [B115, N-(3-Chloro-5-fluorobenzyl)-3-hydroxy-2-oxo-1-(4-sulfamoyl-phenyl)pyrrolidine-3-carboxamide]
O=C(c1cc2cc(N3CC[C@](O)(C(=O)NCc4cc(F)cc(Cl)c4)C3=O)ccc2[nH]1)N1CCNCC1 [B126, N-(3-Chloro-5-fluorobenzyl)-(S)-3-hydroxy-2-oxo-1-[2-(piperazin-1-carbonyl)-1H-indol-5-yl]-pyrrolidine-3-carboxamide]
O=C1N(c2ccccc2)CCC1(O)CNCc1cc(F)cc(F)c1 (stereo not shown) [B46, 3-[(3,5-Difluorobenzylamino)-methyl]-3-hydroxy-1-phenyl-pyrrolidin-2-one]
O=C(NCc1cc(F)cc(Cl)c1)[C@@]1(O)CCN(c2ccc3[nH]c(=O)[nH]c3c2)C1=O [B71, N-(3-Chloro-5-fluorobenzyl)-(S)-3-hydroxy-2-oxo-1-(2-oxo-2,3-dihydro-1H-benzimidazol-5-yl)-pyrrolidine-3-carboxamide]
O=C(NCc1cc(F)cc(Cl)c1)C1(O)CCN(Cc2nc3ccccc3s2)C1=O (stereo not shown) [A270, N-(3-Chloro-5-fluorobenzyl)-1-benzothiazol-2-ylmethyl-3-hydroxy-2-oxopyrrolidine-3-carboxamide]
O=C(NCc1cc(F)cc(Cl)c1)[C@@]1(O)CCN(c2cc(C(F)(F)F)ccc2F)C1=O [B39, N-(3-Chloro-5-fluorobenzyl)-(S)-1-(2-Fluoro-5-trifluoromethyl-phenyl)-3-hydroxy-2-oxo-pyrrolidine-3-carboxamide]
O=C(NCCc1cc(F)cc(Cl)c1)[C@@]1(O)CCN(c2ccc3[nH]ncc3c2)C1=O [A191, N-[2-(3-Chloro-5-fluorophenyl)-ethyl]-(S)-3-hydroxy-1-(1H-indazol-5-yl)-2-oxopyrrolidine-3-carboxamide]
O=C(NCc1cc(F)cc(Cl)c1)C1(O)CCN(c2ccc3[nH]cc(C(F)(F)F)c3c2)C1=O (stereo not shown) [B43, N-(3-Chloro-5-fluorobenzyl)-3-hydroxy-2-oxo-1-(3-trifluoromethyl-1H-indol-5-yl)-pyrrolidine-3-carboxamide]
CC(C)(C)OC(=O)N1CCN(C(=O)c2cc3cc(N4CC[C@](O)(C(=O)NCc5cc(F)cc(Cl)c5)C4=O)ccc3[nH]2)CC1 [B123, tert-Butyl 4-{5-[(S)-3-(3-chloro-5-fluorobenzylcarbamoyl)-3-hydroxy-2-oxopyrrolidin-1-yl]-1H-indol-2-carbonyl}-piperazine-1-carboxylate]
NC(=O)c1cccc(N2CCC(O)(C(=O)NCc3cccc(F)c3Cl)C2=O)c1 (stereo not shown) [A193, N-(2-Chloro-3-fluorobenzyl)-1-(3-carbamoylphenyl)-3-hydroxy-2-oxopyrrolidine-3-carboxamide]
CCNC(=O)c1cc2cc(N3CC[C@](O)(C(=O)NCc4cc(F)cc(Cl)c4)C3=O)ccc2o1 [A194, N-(3-Chloro-5-fluorobenzyl)-(S)-1-(2-ethylcarbamoylbenzofuran-5-yl)-3-hydroxy-2-oxopyrrolidine-3-carboxamide]
O=C1CCc2cc(N3CC[C@](O)(C(=O)NCc4cccc(F)c4Cl)C3=O)ccc2N1 [B15, N-(2-Chloro-3-fluorobenzyl)-(S)-3-hydroxy-2-oxo-1-(2-oxo-1,2,3,4-tetrahydroquinolin-6-yl)-pyrrolidine-3-carboxamide]
O=C(NCc1cc(F)cc(Cl)c1)[C@@]1(O)CCN(c2cc(C(F)(F)F)ccn2)C1=O [B52, N-(3-Chloro-5-fluorobenzyl)-(S)-3-hydroxy-2-oxo-1-(4-trifluoromethylpyridin-2-yl)-pyrrolidine-3-carboxamide]
O=C(NCc1cc(F)cc(Cl)c1)[C@@]1(O)CCN(c2cccc(NS(=O)(=O)C3CC3)c2)C1=O [A80, N-(3-Chloro-5-fluorobenzyl)-(S)-1-(3-cyclopropanesulfonylamino-phenyl)-3-hydroxy-2-oxo-pyrrolidine-3-carboxamide]
O=C1CCc2cc(N3CCC(O)(C(=O)NCCc4cc(F)cc(F)c4)C3=O)ccc2N1 (stereo not shown) [A199, N-[2-(3,5-Difluorophenyl)ethyl]-3-hydroxy-2-oxo-1-(2-oxo-1,2,3,4-tetrahydroquinolin-6-yl)-pyrrolidine-3-carboxamide]
